According to patent US20110092540A1, “SUBSTITUTED N-PHENYL-2,3-DIHYDROIMIDAZO[2,1-B]THIAZOLE-5-SULFONAMIDE DERIVATIVES AS 5-HT6 LIGANDS” (priority 2008, published 2011):
Counter-ions that a name gives are not always drawn.

What was measured:
[1] = target: T1, 5HT6-human recombinant receptor (Homo sapiens, UniProt P50406); assay: Binding to serotonin receptor 5HT6 ([3H]-LSD radioligand displacement); set-up: purchased Receptor Biology; host or cells: HEK-293 cells (membranes); conditions: membranes of HEK-293 cells expressing 5HT6-human recombinant receptor; [3H]-LSD 2.7 nM; 60 min, 37° C.
Experimental: Binding to Serotonin Receptor 5HT6
Cell membranes of HEK-293 cells expressing the 5HT6-human recombinant receptor were supplied by Receptor Biology. In said membranes the receptor concentration is 2.18 pmol/mg protein and the protein concentration is 9.17 mg/ml. The experimental protocol follows the method of B. L. Roth et al. [B. L. Roth et al., The Journal of Pharmacology and Experimental Therapeutics, 1994, 268. 1403] with the following slight changes. The respective part of the literature description is hereby incorporated by reference and forms part of the disclosure.
The commercial membrane is diluted (1:40 dilution) with the binding buffer: 50 mM Tris-HCl, 10 mM MgCl2, 0.5 mM EDTA (pH 7.4). The radioligand used is [^3H]-LSD at a concentration of 2.7 nM with a final volume of 200 μl. incubation is initiated by adding 100 μl of membrane suspension, (≈22.9 μg membrane protein), and is prolonged for 60 minutes at a temperature of 37° C. The incubation is ended by fast filtration in a Brandel Cell Harvester through fiber glass filters made by Schleicher & Schuell GF 3362 pretreated with a solution of polyethylenimine at 0.5%. The filters are washed three times with three milliliters of buffer Tris-HCl 50 mM pH 7.4. The filters are transferred to flasks and 5 ml of Ecoscint H liquid scintillation cocktail are added to each flask. The flasks are allowed to reach equilibrium for several hours before counting with a Wallac Winspectral 1414 scintillation counter. Non-specific binding is determined in the presence of 100 μM of serotonin. Tests were made in triplicate. The inhibition constants (Ki, nM) were calculated by non-linear regression analysis using the program EBDA/LIGAND described in Munson and Rodbard, Analytical Biochemistry, 1980, 107, 220, which is hereby incorporated by reference and forms part of the disclosure.

[2] = target: T1, 5HT6-human recombinant receptor; conditions: in words; Fisas, A. et al., Brit. J. Pharm. 2006; cited from earlier work
[3] = in words; Fisas, A. et al., Brit. J. Pharm. 2006; cited from earlier work

T1 sequence (P50406 whole entry): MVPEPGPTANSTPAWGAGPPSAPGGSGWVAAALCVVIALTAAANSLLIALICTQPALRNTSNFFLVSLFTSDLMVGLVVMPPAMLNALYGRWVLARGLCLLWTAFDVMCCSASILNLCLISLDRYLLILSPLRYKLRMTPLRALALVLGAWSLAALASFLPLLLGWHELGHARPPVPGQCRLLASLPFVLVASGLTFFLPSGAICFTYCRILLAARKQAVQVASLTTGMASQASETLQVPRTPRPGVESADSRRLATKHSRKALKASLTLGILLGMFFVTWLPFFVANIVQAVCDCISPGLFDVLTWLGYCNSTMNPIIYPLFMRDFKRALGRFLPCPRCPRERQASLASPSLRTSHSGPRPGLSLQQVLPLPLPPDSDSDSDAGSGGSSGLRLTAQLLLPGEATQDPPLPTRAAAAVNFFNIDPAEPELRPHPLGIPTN

For `O=S(=O)(Nc1ccc2c(c1)CCNC2)c1c(Cl)nc2n1CCS2` [Compound 1, 6-Chloro-2,3-dihydro-imidazo[2,1-b] thiazole-5-sulfonic acid (1,2,3,4-tetrahydro-isoquinolin-6-yl)-amide hydrochloride], the Ki [1] was 8.4 nM.
`CN(C)CCc1c[nH]c2ccc(NS(=O)(=O)c3c(Cl)nc4n3CCS4)cc12` [Compound 3, 6-Chloro-2,3-dihydro-imidazo[2,1-b] thiazole-5-sulfonic acid [3-(2-dimethylamino-ethyl)-1H-indol-5-yl]-amide hydrochloride] gave a Ki [1] of 16.9 nM.
Work on `CC(=O)N1CCc2cc(NS(=O)(=O)c3c(Cl)nc4n3CCS4)ccc21` [Compound 4, 6-Chloro-2,3-dihydro-imidazo[2,1-b] thiazole-5-sulfonic acid (1-acetyl-2,3-dihydro-1H-indol-5-yl)-amide] yielded a Ki [1] of 5.4 nM.
For `O=C1CCc2ccc(NS(=O)(=O)c3c(Cl)nc4n3CCS4)cc21` [Compound 10, 6-Chloro-2,3-dihydro-imidazo[2,1-b] thiazole-5-sulfonic acid (3-oxo-indan-5-yl)-amide], the Ki [1] was 46 nM.
In the case of `CN(C)CCc1c[nH]c2ccc(NS(=O)(=O)c3ccc4c(Cl)cccc4c3)cc12` [Compound E-6837, 5-chloro-N[3-(2-(dimethylamino)ethyl)-1H-indol-5-yl] naphthalene-2-sulphonamide], the “binding for the recombinant human 5-HT6 receptor” value [2] is listed as “selective and high affinity binding”, the body weight [3] is listed as “significant body weight loss” and the food intake [3] is listed as “reduction in the food intake”.
